# Results published in the RepoRT retention time repository (doi:10.1021/ac101825k).
# Assay: RP, Waters Symmetry C18, 100 × 2.1 mm; A: water + 0.1% formic acid, pH 3; B: acetonitrile + 0.1% formic acid, pH 3; gradient (min/%B) 0/5 24/95 29/95 29.1/5
# Conditions: stereoisomer not certain
row,SMILES,LC retention time [min]
1,"Oc1cc(O)c2c(c1)OC(c1ccc(O)c(O)c1)C(O)C2 (single isomer, unassigned; (-)) [(-)-Epicatechin]",7.82
2,"COc1cc(C=CC(=O)O)cc(OC)c1OC [3,4,5-Trimethoxycinnamic_acid]",12.3
3,Cc1cc(=O)oc2cc(OC3OC(C(=O)O)C(O)C(O)C3O)ccc12 (stereo unspecified) [4-Methylumbelliferylglucuronide],8.77
4,Nc1ncnc2c1ncn2C1OC(CO)C(O)C1O (stereo unspecified) [Adenosine],1.52
5,O=c1cc(-c2ccc(O)c(-c3c(O)cc(O)c4c(=O)cc(-c5ccc(O)cc5)oc34)c2)oc2cc(O)cc(O)c12 [Amentoflavone],14.2
6,CN1CCc2cccc3c2C1Cc1ccc(O)c(O)c1-3 (stereo unspecified) [Apomorphine],7.2
7,COc1ccc2cc3[n+](cc2c1OC)CCc1cc2c(cc1-3)OCO2 [Berberine],9.9
8,COc1c2ccoc2cc2oc(=O)ccc12 [Bergapten],14.5
9,CN1CCc2cc3c(cc2C1C1OC(=O)c2c1ccc1c2OCO1)OCO3 (stereo unspecified) [Bicuculline],8.51
10,COc1ccc(-c2coc3cc(O)cc(O)c3c2=O)cc1 [Biochanin_A],16.1
11,CN1Cc2c(ccc3c2OCO3)C2C(O)Cc3cc4c(cc3C21)OCO4 (stereo unspecified) [Chelidonine],9.5
12,C=CC1CN2CCC1CC2C(O)c1ccnc2ccccc12 (stereo unspecified) [Cinchonine],3.47
13,CCC1CN2CCc3cc(OC)c(OC)cc3C2CC1CC1NCCc2cc(OC)c(OC)cc21 (stereo unspecified) [Emetine],7.62
14,CCC1OC(=O)C(C)C(OC2CC(C)(OC)C(O)C(C)O2)C(C)C(OC2OC(C)CC(N(C)C)C2O)C(C)(O)CC(C)C(=O)C(C)C(O)C1(C)O (stereo unspecified) [Erythromycin],11.2
15,O=c1c(-c2ccc(O)cc2)coc2cc(O)cc(O)c12 [Genistein],13.1
16,Cc1nccc2c1[nH]c1ccccc12 [Harmane],7.81
17,CC(C)C(NC(=O)Cc1c[nH]c2ccccc12)C(=O)O (stereo unspecified) [IAA-Val],12.1
18,O=C(O)c1c[nH]c2ccccc12 [Indole-3-carboxylic_acid],10.5
19,O=c1c(O)c(-c2ccc(O)cc2)oc2cc(O)cc(O)c12 [Kaempferol],13.3
20,c1coc(CNc2ncnc3nc[nH]c23)c1 [Kinetin],6.57
21,COc1ccc(CC2c3cc(OC)c(OC)cc3CCN2C)cc1OC (stereo unspecified) [Laudanosine],8.39

row,SMILES,LC retention time [min]
1,CC1OC(OC2C(Oc3cc(O)c4c(c3)OC(c3ccc(O)cc3)CC4=O)OC(CO)C(O)C2O)C(O)C(O)C1O (stereo unspecified) [Naringin],10.5
2,NC(=O)c1ccc[n+](C2OC(COP(=O)(O)OP(=O)(O)OCC3OC(n4cnc5c(N)ncnc54)C(O)C3O)C(O)C2O)c1 (stereo unspecified) [Nicotinamide_dinucleotide],1.2
3,NC(Cc1ccccc1)C(=O)O (stereo unspecified) [Phenylalanine],2.27
4,O=C(CCc1ccc(O)cc1)c1c(O)cc(O)cc1OC1OC(CO)C(O)C(O)C1O (stereo unspecified) [Phlorizin],11.1
5,O=c1c(O)c(-c2ccc(O)c(O)c2)oc2cc(O)cc(O)c12 [Quercetin],12.2
6,COC(=O)C1C2CC3c4[nH]c5cc(OC)ccc5c4CCN3CC2CC(OC(=O)c2cc(OC)c(OC)c(OC)c2)C1OC (stereo unspecified) [Reserpine],12.6
7,Oc1ccc(C=Cc2cc(O)cc(O)c2)cc1 [Resveratrol],11.5
8,COC1C=COC2(C)Oc3c(C)c(O)c4c(O)c(c(C=NN5CCN(C)CC5)c(O)c4c3C2=O)NC(=O)C(C)=CC=CC(C)C(O)C(C)C(O)C(C)C(OC(C)=O)C1C (stereo unspecified) [Rifampicin],15.1
9,C=C(C)C1Cc2c(ccc3c2OC2COc4cc(OC)c(OC)cc4C2C3=O)O1 (stereo unspecified) [Rotenone],18
10,CC1OC(OCC2OC(Oc3c(-c4ccc(O)c(O)c4)oc4cc(O)cc(O)c4c3=O)C(O)C(O)C2O)C(O)C(O)C1O (stereo unspecified) [Rutin],9.72
11,"COc1ccc2c(c1OC)C(=O)OC2C1c2c(cc3c(c2OC)OCO3)CCN1C (stereo unspecified) [S,R-Noscapine]",10
12,Cc1cc2nc3cc(C)c(N)cc3[n+](-c3ccccc3)c2cc1N [Safranin],10.9
13,CC1NCCc2cc(O)c(O)cc21 (stereo unspecified) [Salsolinol],1.08
14,COc1cc(C=CC(=O)OCC[N+](C)(C)C)cc(OC)c1O [Sinapine],6.46
15,Oc1ccc(CC2NCCc3cc(O)c(O)cc32)cc1O (stereo unspecified) [Tetrahydropapaveroline],1.14
16,NC(Cc1c[nH]c2ccccc12)C(=O)O (stereo unspecified) [Tryptophan],4.07
17,NCCc1ccc(O)cc1 [Tyramine],8.45
18,CC1OC(OC2C(c3c(O)cc(O)c4c(=O)cc(-c5ccc(O)cc5)oc34)OC(CO)C(O)C2O)C(O)C(O)C1O (stereo unspecified) [Vitexin-2''-O-rhamnoside],9.58
19,COc1cc(O)c(CC=C(C)C)c(O)c1C(=O)C=Cc1ccc(O)cc1 [Xanthohumol],18.5
20,COc1ccccc1C(=O)O [o-Anisic acid],10.1
